Key:
[1] = molecular target: Glutamate receptor ionotropic, AMPA (Rattus norvegicus, UniProt P19490+P19491+P19492+P19493); experiment: Tested for the inhibitory activity of against Ionotropic glutamate receptor AMPA by [3H]- AMPA binding assay; assay type: protein-complex assay
Rattus norvegicus = species: Rattus norvegicus; experiment: Tested in vitro for the dose response curve in rat cortical wedge preparation

Row | Structure (SMILES) | IC50 [1] | EC50 (Rattus norvegicus)
1 | CCOC(=O)C(N)Cc1c(OCC)noc1C (stereo not drawn) | > 100 µM | 
2 | Cc1onc(O)c1CC(N)C(=O)O (single isomer, unassigned; form 1) |  | 3.8 µM
3 | Cc1onc(O)c1CC(N)C(=O)O (single isomer, unassigned; form 2) |  | 580 µM
